Data taken from US9944602B2, “Piperidinone herbicides” (E. I. DU PONT DE NEMOURS AND COMPANY, priority 2014, dated 2018).

Legend:
Type in all cases: in vivo
[1] = system: barnyardgrass (Echinochloa crus-galli); test: Test A preemergence barnyardgrass; details: 0 to 100 scale; for Barnyardgrass plant response rating: 125 g ai/ha, 0 no effect, 100 complete control; for Plant response rating, Barnyardgrass: 500 g ai/ha, 0 is no effect, 100 is complete control
Method in brief: (§1)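 Seeds sown in loam–sand blend received a directed preemergence soil spray; postemergence plants (2–10 cm, one- to two-leaf stage) were sprayed in the same soil. Chemicals were formulated in non-phytotoxic solvent with surfactant. After ~10 d in greenhouse, injury was rated visually against untreated controls, 0 (no effect) to 100 (complete control).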

[2] = system: crabgrass, large (large crabgrass, Digitaria sanguinalis); test: Test A preemergence crabgrass, large; details: 0 to 100 scale; for Crabgrass, Large plant response rating: 125 g ai/ha, 0 no effect, 100 complete control; for Plant response rating, Crabgrass, Large: 500 g ai/ha, 0 is no effect, 100 is complete control
Source text: (§2) Seeds of plant species selected from barnyardgrass (Echinochloa crus-galli), kochia (Kochia scoparia), ragweed (common ragweed, Ambrosia elatior), ryegrass, Italian (Italian ryegrass, Lolium multiflorum), crabgrass, large (large crabgrass, Digitaria sanguinalis), foxtail, giant (giant foxtail, Setaria faberii), morningglory (Ipomoea spp.), pigweed (Amaranthus retroflexus), velvetleaf (Abutilon theophrasti), wheat (Triticum aestivum), and corn (Zea mays) were planted into a blend of loam soil and sand and treated preemergence with a directed soil spray using test chemicals formulated in a non-phytotoxic solvent mixture which included a surfactant.
(§3) At the same time, plants selected from these crop and weed species and also blackgrass (Alopecurus myosuroides), and galium (catchweed bedstraw, Galium aparine) were planted in pots containing the same blend of loam soil and sand and treated with postemergence applications of test chemicals formulated in the same manner. Plants ranged in height from 2 to 10 cm and were in the one- to two-leaf stage for the postemergence treatment. Treated plants and untreated controls were maintained in a greenhouse for approximately 10 d, after which time all treated plants were compared to untreated controls and visually evaluated for injury. Plant response ratings, summarized in Table A, are based on a 0 to 100 scale where 0 is no effect and 100 is complete control. A dash (-) response means no test result.

[3] = system: foxtail, giant (giant foxtail, Setaria faberii); test: Test A preemergence foxtail, giant; details: 0 to 100 scale, 0 no effect, 100 complete control
Method in brief: as §1

[4] = system: morningglory (Ipomoea spp.); test: Test A preemergence morningglory; details: 0 to 100 scale, 0 no effect, 100 complete control
Source text: as §2, §3

[5] = system: pigweed (Amaranthus retroflexus); test: Test A preemergence pigweed; details: 0 to 100 scale, 0 no effect, 100 complete control
Method in brief: as §1

[6] = system: velvetleaf (Abutilon theophrasti); test: Test A preemergence velvetleaf; details: 0 to 100 scale, 0 no effect, 100 complete control
Source text: as §2, §3

[7] = system: wheat (Triticum aestivum); test: Test A preemergence wheat; details: 0 to 100 scale, 0 no effect, 100 complete control
Source text: as §2, §3

corn (Zea mays) [8] = test: Test A preemergence corn; details: 0 to 100 scale; for Corn plant response rating: 125 g ai/ha, 0 no effect, 100 complete control; for Plant response rating, Corn: 500 g ai/ha, 0 is no effect, 100 is complete control
Source text: as §2, §3

[9] = system: barnyardgrass (Echinochloa crus-galli); test: Test A postemergence barnyardgrass; details: 0 to 100 scale, 0 is no effect, 100 is complete control
Method in brief: as §1

[10] = system: crabgrass, large (large crabgrass, Digitaria sanguinalis); test: Test A postemergence crabgrass, large; details: 0 to 100 scale, 0 is no effect, 100 is complete control
Source text: as §2, §3

[11] = system: foxtail, giant (giant foxtail, Setaria faberii); test: Test A postemergence foxtail, giant; details: 0 to 100 scale, 0 is no effect, 100 is complete control
Method in brief: as §1

[12] = system: morningglory (Ipomoea spp.); test: Test A postemergence morningglory; details: 0 to 100 scale, 0 is no effect, 100 is complete control
Source text: as §2, §3

[13] = system: pigweed (Amaranthus retroflexus); test: Test A postemergence pigweed; details: 0 to 100 scale, 0 is no effect, 100 is complete control
Method in brief: as §1

[14] = system: velvetleaf (Abutilon theophrasti); test: Test A postemergence velvetleaf; details: 0 to 100 scale, 0 is no effect, 100 is complete control
Source text: as §2, §3

[15] = system: wheat (Triticum aestivum); test: Test A postemergence wheat; details: 0 to 100 scale, 0 is no effect, 100 is complete control
Method in brief: as §1

corn (Zea mays) [16] = test: Test A postemergence corn; details: 0 to 100 scale, 0 is no effect, 100 is complete control
Method in brief: as §1

rice (Oryza sativa) = test: Test B flooded paddy test rice; details: Table B, Flood, 250 g ai/ha, scale 0 to 100
Method in brief: (§4)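 2-leaf plants; flood 3 cm over soil; cpd into paddy water; water depth kept; greenhouse 13–15 d; visual rating vs controls.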

[17] = system: sedge, umbrella (small-flower umbrella sedge, Cyperus difformis); test: Test B flooded paddy test sedge, umbrella; details: Table B, Flood, 250 g ai/ha, scale 0 to 100
Method in brief: as §4

[18] = system: ducksalad (Heteranthera limosa); test: Test B flooded paddy test ducksalad; details: Table B, Flood, 250 g ai/ha, scale 0 to 100
Method in brief: as §4

[19] = system: barnyardgrass (Echinochloa crus-galli); test: Test B flooded paddy test barnyardgrass; details: Table B, Flood, 250 g ai/ha, scale 0 to 100
Method in brief: as §4

Compound	Barnyardgrass plant response rating [1]	Plant response rating, Barnyardgrass [1]	Crabgrass, Large plant response rating [2]	Plant response rating, Crabgrass, Large [2]	Foxtail, Giant plant response rating ([3]; 125 g ai/ha)	Foxtail, Giant plant response rating ([3]; 500 g ai/ha)	Morningglory plant response rating ([4]; 125 g ai/ha)	Morningglory plant response rating ([4]; 500 g ai/ha)	Pigweed plant response rating ([5]; 125 g ai/ha)	Pigweed plant response rating ([5]; 500 g ai/ha)	Velvetleaf plant response rating ([6]; 125 g ai/ha)	Velvetleaf plant response rating ([6]; 500 g ai/ha)	Wheat plant response rating ([7]; 125 g ai/ha)	Wheat plant response rating ([7]; 500 g ai/ha)	Corn plant response rating (corn (Zea mays) [8])	Plant response rating, Corn (corn (Zea mays) [8])	Plant response rating, Barnyardgrass ([9]; 125 g ai/ha)	Plant response rating, Barnyardgrass ([9]; 500 g ai/ha)	Plant response rating, Crabgrass, Large ([10]; 125 g ai/ha)	Plant response rating, Crabgrass, Large ([10]; 500 g ai/ha)	further results
O=C1NCCC(c2ccccc2)C1C(=O)Nc1ccccc1C(F)(F)F (racemic) [Compound 2]	0	20	70	90	10	70	0	0	0	0	0	0	0	0	0	0	0	0	0	10	Plant response rating, Foxtail, Giant ([11]; 125 g ai/ha): 0; Plant response rating, Foxtail, Giant ([11]; 500 g ai/ha): 0; Plant response rating, Morningglory ([12]; 125 g ai/ha): 0; Plant response rating, Morningglory ([12]; 500 g ai/ha): 0; Plant response rating, Pigweed ([13]; 125 g ai/ha): 0; Plant response rating, Pigweed ([13]; 500 g ai/ha): 0; Plant response rating, Velvetleaf ([14]; 125 g ai/ha): 0; Plant response rating, Velvetleaf ([14]; 500 g ai/ha): 0; Plant response rating, Wheat ([15]; 125 g ai/ha): 0; Plant response rating, Wheat ([15]; 500 g ai/ha): 0; Plant response rating, Corn (corn (Zea mays) [16]; 125 g ai/ha): 0; Plant response rating, Corn (corn (Zea mays) [16]; 500 g ai/ha): 0; Plant response rating (rice (Oryza sativa)): 0; Plant response rating [17]: 0; Plant response rating [18]: 0; Plant response rating [19]: 0
O=C1NCCC(c2ccc(F)c(F)c2)C1C(=O)Nc1ccccc1F (racemic) [Compound 1]	0	70	80	90	30	90	0	0	0	0	0	0	0	0	0	0	0	50	30	70	Plant response rating, Foxtail, Giant ([11]; 125 g ai/ha): 0; Plant response rating, Foxtail, Giant ([11]; 500 g ai/ha): 0; Plant response rating, Morningglory ([12]; 125 g ai/ha): 0; Plant response rating, Morningglory ([12]; 500 g ai/ha): 0; Plant response rating, Pigweed ([13]; 125 g ai/ha): 0; Plant response rating, Pigweed ([13]; 500 g ai/ha): 0; Plant response rating, Velvetleaf ([14]; 125 g ai/ha): 0; Plant response rating, Velvetleaf ([14]; 500 g ai/ha): 0; Plant response rating, Wheat ([15]; 125 g ai/ha): 0; Plant response rating, Wheat ([15]; 500 g ai/ha): 0; Plant response rating, Corn (corn (Zea mays) [16]; 125 g ai/ha): 0; Plant response rating, Corn (corn (Zea mays) [16]; 500 g ai/ha): 0; Plant response rating (rice (Oryza sativa)): 0; Plant response rating [17]: 0; Plant response rating [18]: 0; Plant response rating [19]: 0
O=C1NCCC(c2ccc(F)c(F)c2)C1C(=O)Nc1ccccc1C(F)(F)F (racemic) [Compound 6]	60	80	90	90	60	90	0	0	0	0	0	0	0	0	0	0	0	50	50	80	Plant response rating, Foxtail, Giant ([11]; 125 g ai/ha): 30; Plant response rating, Foxtail, Giant ([11]; 500 g ai/ha): 70; Plant response rating, Morningglory ([12]; 125 g ai/ha): 0; Plant response rating, Morningglory ([12]; 500 g ai/ha): 0; Plant response rating, Pigweed ([13]; 125 g ai/ha): 0; Plant response rating, Pigweed ([13]; 500 g ai/ha): 30; Plant response rating, Velvetleaf ([14]; 125 g ai/ha): 0; Plant response rating, Velvetleaf ([14]; 500 g ai/ha): 0; Plant response rating, Wheat ([15]; 125 g ai/ha): 0; Plant response rating, Wheat ([15]; 500 g ai/ha): 0; Plant response rating, Corn (corn (Zea mays) [16]; 125 g ai/ha): 0; Plant response rating, Corn (corn (Zea mays) [16]; 500 g ai/ha): 0; Plant response rating (rice (Oryza sativa)): 0; Plant response rating [17]: 0; Plant response rating [18]: 60; Plant response rating [19]: 0
O=C1NCCC(c2ccccc2)C1C(=O)Nc1ccccc1F (racemic) [Compound 3]	0	0	0	30	0	0	0	0	0	0	0	0	0	20	0	0	0	0	0	0	Plant response rating, Foxtail, Giant ([11]; 125 g ai/ha): 0; Plant response rating, Foxtail, Giant ([11]; 500 g ai/ha): 0; Plant response rating, Morningglory ([12]; 125 g ai/ha): 0; Plant response rating, Morningglory ([12]; 500 g ai/ha): 0; Plant response rating, Pigweed ([13]; 125 g ai/ha): 0; Plant response rating, Pigweed ([13]; 500 g ai/ha): 0; Plant response rating, Velvetleaf ([14]; 125 g ai/ha): 0; Plant response rating, Velvetleaf ([14]; 500 g ai/ha): 0; Plant response rating, Wheat ([15]; 125 g ai/ha): 0; Plant response rating, Wheat ([15]; 500 g ai/ha): 0; Plant response rating, Corn (corn (Zea mays) [16]; 125 g ai/ha): 0; Plant response rating, Corn (corn (Zea mays) [16]; 500 g ai/ha): 0; Plant response rating (rice (Oryza sativa)): 0; Plant response rating [17]: 0; Plant response rating [18]: 0; Plant response rating [19]: 0
O=C1NCCC(c2ccc(F)cc2)C1C(=O)Nc1ccccc1C(F)(F)F (racemic) [Compound 4]	0	50	90	90	10	70	0	0	0	0	0	0	0	0	0	0	0	20	40	70	Plant response rating, Foxtail, Giant ([11]; 125 g ai/ha): 0; Plant response rating, Foxtail, Giant ([11]; 500 g ai/ha): 0; Plant response rating, Morningglory ([12]; 125 g ai/ha): 0; Plant response rating, Morningglory ([12]; 500 g ai/ha): 0; Plant response rating, Pigweed ([13]; 125 g ai/ha): 0; Plant response rating, Pigweed ([13]; 500 g ai/ha): 0; Plant response rating, Velvetleaf ([14]; 125 g ai/ha): 0; Plant response rating, Velvetleaf ([14]; 500 g ai/ha): 0; Plant response rating, Wheat ([15]; 125 g ai/ha): 0; Plant response rating, Wheat ([15]; 500 g ai/ha): 0; Plant response rating, Corn (corn (Zea mays) [16]; 125 g ai/ha): 0; Plant response rating, Corn (corn (Zea mays) [16]; 500 g ai/ha): 0; Plant response rating (rice (Oryza sativa)): 0; Plant response rating [17]: 0; Plant response rating [18]: 0; Plant response rating [19]: 0
